A word on the inhibition: it is the share of the control response that was lost under treatment. The term IC50 denotes the concentration that inhibits the measured activity by half. Low values mean greater potency, high ones weaker potency.

For 1 molecule, inhibition and IC50 results are on record in ChEMBL document CHEMBL1143529, “A general carbometalation, three component coupling strategy for the synthesis of alpha,beta-unsaturated gamma-sultines including thio-rofecoxib, a selective COX-2 inhibitor” (Bioorg Med Chem Lett, 2005).

The target in assay [1] is T1, Prostaglandin G/H synthase 2 (Homo sapiens) (UniProt P35354).
T1 sequence (whole entry): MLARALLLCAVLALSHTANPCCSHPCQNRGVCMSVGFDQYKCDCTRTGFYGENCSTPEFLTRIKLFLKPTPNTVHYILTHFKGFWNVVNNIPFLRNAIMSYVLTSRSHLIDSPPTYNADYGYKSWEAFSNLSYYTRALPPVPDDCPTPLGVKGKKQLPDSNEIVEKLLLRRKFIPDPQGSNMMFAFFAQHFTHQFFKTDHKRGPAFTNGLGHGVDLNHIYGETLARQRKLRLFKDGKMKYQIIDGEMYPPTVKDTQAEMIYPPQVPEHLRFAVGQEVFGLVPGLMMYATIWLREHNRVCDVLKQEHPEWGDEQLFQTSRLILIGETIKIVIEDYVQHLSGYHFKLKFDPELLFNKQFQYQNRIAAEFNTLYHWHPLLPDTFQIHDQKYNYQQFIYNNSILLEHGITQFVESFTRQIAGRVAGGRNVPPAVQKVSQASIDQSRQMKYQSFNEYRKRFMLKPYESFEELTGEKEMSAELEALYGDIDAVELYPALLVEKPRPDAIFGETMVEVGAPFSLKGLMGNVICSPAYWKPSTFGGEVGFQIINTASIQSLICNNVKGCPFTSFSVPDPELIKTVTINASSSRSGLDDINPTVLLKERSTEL
The assay is described as follows: In vitro percent inhibition of prostaglandin G/H synthase 2 at 100 uM in microsomal enzyme assay.

Assay [2] addresses T2, Prostaglandin G/H synthase 2 (Homo sapiens, UniProt P35354).
T2 sequence (P35354 whole entry): T1 sequence (whole entry)
The assay is described as follows: In vitro inhibitory concentration against prostaglandin G/H synthase 2 in microsomal enzyme assay.

The molecule `CS(=O)(=O)c1ccc(C2=C(c3ccccc3)S(=O)OC2)cc1` (configuration not stated) came in with an inhibition in assay [1] of 13%. Further, the IC50 in assay [2] is > 100 µM.
